These substances were tested on 5-α-reductase (assay: interruption of 5-α-reductase activity by copper containing peptides). Conditions: stated in words only; said to act by preventing binding of testosterone to the active site; no method or data given.
Format: biochemical

| Substance | interruption of the activity of 5-α-reductase |
| --- | --- |
| Cu(II)-His-Val-His | interrupt 5-α-reductase |
| Gly-His-Lys-Cu(II) | interrupt the activity of 5-α-reductase |
| His-Ala-His-Cu(II) | interrupt 5-α-reductase |
